Test results as given in ChEMBL document CHEMBL1201862, “PubChem BioAssay data set” (2004).
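How tested: cells in 96-well plates exposed to compound for 48 hours at five concentrations. At the GI50, growth is halved.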 Active and inactive are the calls of the source. No stated cut-off is given here; in the data, active = GI50 up to about 1.1 µM and inactive = higher.

Tests used:
Assay in all cases: growth of human tumour cells (NCI), 48 h
[1] = test system: HOP-62
[2] = test system: U-251
[3] = test system: HCT-116
[4] = test system: NCI-H460
[5] = test system: CCRF-CEM
[6] = test system: UO-31
[7] = test system: K562
[8] = test system: COLO 205
[9] = test system: HT-29
[10] = test system: RXF 393
[11] = test system: SW-620
[12] = test system: LOX IMVI
[13] = test system: MOLT-4
[14] = test system: SF-539
[15] = test system: NCI-H23
[16] = test system: ACHN
[17] = test system: SF-295
[18] = test system: OVCAR-4
[19] = test system: SK-MEL-2
[20] = test system: SK-OV-3

COc1cc(CNc2nc3cc(C(F)(F)F)ccc3nc2-c2ccccc2)cc(OC)c1OC
GI50 [1]: 43.5 µM (inactive) | GI50 [2]: 27 µM (inactive) | GI50 [3]: 19.1 µM (inactive) | GI50 [4]: 25.4 µM (inactive) | GI50 [5]: 24.9 µM (inactive) | GI50 [6]: 31.6 µM (inactive) | GI50 [7]: 22.5 µM (inactive) | GI50 [8]: 17.1 µM (inactive) | GI50 [9]: 23.7 µM (inactive) | GI50 [10]: 10.6 µM (inactive) | GI50 [11]: 39.2 µM (inactive) | GI50 [12]: 28.6 µM (inactive) | GI50 [13]: 12.9 µM (inactive) | GI50 [14]: 43.1 µM (inactive) | GI50 [15]: 21 µM (inactive) | GI50 [16]: 16.7 µM (inactive) | GI50 [17]: 41.8 µM (inactive)

O=C(O)/C=C/c1nc2ccccc2c(=O)o1
GI50 [18]: > 100 µM (inactive) | GI50 [2]: > 100 µM (inactive) | GI50 [3]: > 100 µM (inactive) | GI50 [5]: 77.3 µM (inactive) | GI50 [6]: > 100 µM (inactive) | GI50 [7]: > 100 µM (inactive) | GI50 [19]: > 100 µM (inactive) | GI50 [8]: > 100 µM (inactive) | GI50 [9]: > 100 µM (inactive) | GI50 [11]: > 100 µM (inactive) | GI50 [12]: > 100 µM (inactive) | GI50 [20]: > 100 µM (inactive) | GI50 [13]: > 100 µM (inactive) | GI50 [14]: > 100 µM (inactive) | GI50 [15]: > 100 µM (inactive) | GI50 [16]: > 100 µM (inactive) | GI50 [17]: > 100 µM (inactive)

CN(C(=O)c1ccccc1)c1ccc2c(c1)C(=O)c1ccccc1C2=O
GI50 [18]: > 100 µM (inactive) | GI50 [1]: > 100 µM (inactive) | GI50 [2]: > 100 µM (inactive) | GI50 [3]: > 100 µM (inactive) | GI50 [4]: > 100 µM (inactive) | GI50 [5]: > 100 µM (inactive) | GI50 [6]: > 100 µM (inactive) | GI50 [7]: > 100 µM (inactive) | GI50 [19]: > 100 µM (inactive) | GI50 [8]: > 100 µM (inactive) | GI50 [9]: > 100 µM (inactive) | GI50 [10]: > 100 µM (inactive) | GI50 [11]: > 100 µM (inactive) | GI50 [12]: > 100 µM (inactive) | GI50 [20]: > 100 µM (inactive) | GI50 [13]: > 100 µM (inactive) | GI50 [15]: > 100 µM (inactive) | GI50 [16]: > 100 µM (inactive) | GI50 [17]: > 100 µM (inactive)

Cc1ccc(NP(=O)(Oc2ccccc2)N(CCCl)CCCl)cc1 (stereo not drawn)
GI50 [18]: 51.3 µM (inactive) | GI50 [1]: > 100 µM (inactive) | GI50 [2]: > 100 µM (inactive) | GI50 [3]: 21.2 µM (inactive) | GI50 [6]: 76.4 µM (inactive) | GI50 [7]: > 100 µM (inactive) | GI50 [19]: 41.6 µM (inactive) | GI50 [8]: 31.6 µM (inactive) | GI50 [9]: 26.1 µM (inactive) | GI50 [11]: > 100 µM (inactive) | GI50 [20]: > 100 µM (inactive) | GI50 [13]: 9.04 µM (inactive) | GI50 [14]: > 100 µM (inactive) | GI50 [15]: 61.5 µM (inactive) | GI50 [16]: 34.6 µM (inactive) | GI50 [17]: 67 µM (inactive)

O=c1[nH]c(=O)n(C2OC3COC2C3O)cc1F (stereo not drawn)
GI50 [18]: > 100 µM (inactive) | GI50 [1]: > 100 µM (inactive) | GI50 [2]: > 100 µM (inactive) | GI50 [4]: > 100 µM (inactive) | GI50 [5]: > 100 µM (inactive) | GI50 [6]: > 100 µM (inactive) | GI50 [7]: > 100 µM (inactive) | GI50 [19]: > 100 µM (inactive) | GI50 [8]: > 100 µM (inactive) | GI50 [9]: > 100 µM (inactive) | GI50 [10]: > 100 µM (inactive) | GI50 [11]: > 100 µM (inactive) | GI50 [12]: > 100 µM (inactive) | GI50 [20]: 48.1 µM (inactive) | GI50 [13]: > 100 µM (inactive) | GI50 [15]: > 100 µM (inactive) | GI50 [16]: > 100 µM (inactive) | GI50 [17]: > 100 µM (inactive)

O=C1OC2(CC1C1(O)C3CC4CC(C3)CC1C4)C1CC3CC(C1)CC2C3 (stereo not drawn)
GI50 [18]: 22.1 µM (inactive) | GI50 [3]: 49.7 µM (inactive) | GI50 [4]: 32.1 µM (inactive) | GI50 [5]: 85.1 µM (inactive) | GI50 [6]: > 100 µM (inactive) | GI50 [7]: > 100 µM (inactive) | GI50 [19]: > 100 µM (inactive) | GI50 [9]: > 100 µM (inactive) | GI50 [10]: > 100 µM (inactive) | GI50 [11]: 65.9 µM (inactive) | GI50 [12]: 27.9 µM (inactive) | GI50 [13]: > 100 µM (inactive) | GI50 [14]: > 100 µM (inactive) | GI50 [15]: > 100 µM (inactive) | GI50 [16]: > 100 µM (inactive) | GI50 [17]: 14.5 µM (inactive)

O=C1Nc2cc([N+](=O)[O-])c(Br)cc2C1=O
GI50 [18]: 16.4 µM (inactive) | GI50 [1]: 28.4 µM (inactive) | GI50 [2]: > 10 µM (inactive) | GI50 [4]: 30.5 µM (inactive) | GI50 [5]: 6.01 µM (inactive) | GI50 [6]: 18.5 µM (inactive) | GI50 [7]: 18.1 µM (inactive) | GI50 [19]: 26.7 µM (inactive) | GI50 [8]: 18.4 µM (inactive) | GI50 [9]: 20.2 µM (inactive) | GI50 [10]: 24.7 µM (inactive) | GI50 [11]: 19.3 µM (inactive) | GI50 [12]: 18.5 µM (inactive) | GI50 [20]: 17.5 µM (inactive) | GI50 [13]: 10.4 µM (inactive) | GI50 [14]: 22.4 µM (inactive) | GI50 [15]: 17.3 µM (inactive) | GI50 [16]: 18.2 µM (inactive) | GI50 [17]: 3.68 µM (inactive)

COc1cc(C2C(Cl)C(=O)N2NC(=O)c2ccccc2O)ccc1O (stereo not drawn)
GI50 [2]: > 100 µM (inactive) | GI50 [3]: > 100 µM (inactive) | GI50 [4]: > 100 µM (inactive) | GI50 [5]: > 100 µM (inactive) | GI50 [6]: > 100 µM (inactive) | GI50 [7]: > 100 µM (inactive) | GI50 [19]: > 100 µM (inactive) | GI50 [9]: > 100 µM (inactive) | GI50 [10]: 0.0612 µM (active) | GI50 [12]: > 100 µM (inactive) | GI50 [20]: > 100 µM (inactive) | GI50 [13]: > 100 µM (inactive) | GI50 [14]: > 100 µM (inactive) | GI50 [15]: > 100 µM (inactive) | GI50 [16]: > 100 µM (inactive) | GI50 [17]: > 100 µM (inactive)
